Results published in patent US20210139966A1, “ENHANCEMENT OF NUCLEIC ACID POLYMERIZATION BY MINOR GROOVE BINDING MOIETIES” (priority 2018, published 2021).
Counter-ions that a name gives are not always drawn. Like-named read-outs stand apart in the source and are kept apart here.

Legend:
[1] = system: DNA polymerase; test: Primer extension reaction with XNTPs as substrates (additive screen and MGB titration), gel electrophoresis of Xpandomer products; type: biochemical; details: for enhancement of XNTP polymerization in titration: FIG. 5, MGB ranging from 75 to 600 μM, highest concentration most robust enhancement; for amount of MGB demonstrating reliable enhancement of XNTP polymerization: further titration experiments, FIG. 6
Source text: However, initial transcription of the sequence of the natural DNA template onto the measurable Xpandomer relies on the ability of DNA polymerase to utilize XNTPs as substrates (the generalized structure of an XNTP is discussed herein with reference to FIG. 1A and FIG. 2). […] In an effort to improve the efficiency and accuracy of XNTP polymerization into Xpandomers, a wide variety of additives was screened for the ability to enhance DNA polymerase primer extension reactions using XNTPs as substrates.
A typical primer extension reaction includes the following reagents: 2 pmol primer, 2.2 pmol 45 mer oligonucleotide template, 50 pmol of each XNTP (XATP, XCTP, XGTP, and XTTP), 50 mM Tris HCl, pH 6.79, 200 mM NaCl, 20% PEG, 5% NMS, 0.5 nmol polyphosphate 60.19, 0.3 mM MnCl2, and 0.6 μg of purified recombinant DNA polymerase protein. Reactions are run for 1 hr at 23° C. Reaction products (i.e. constrained Xpandomers) are treated to cleave the phosphoramidate bonds, thereby generating linearized Xpandomers. Reaction products are analyzed using gel electrophoresis on 4-12% acrylamide gels to resolve and visualize Xpandomer products of different lengths. For the additive screen, reaction additives were typically tested in the micro to millimolar range.
Using the primer extension reaction described in Example 1, titration experiments were performed to determine the optimal amount of MGB for enhancement of XNTP polymerization.

[2] = system: DNA polymerase; test: Sequencing by Expansion (SBX) of primer extension products, nanopore reads aligned to a 45 mer template; type: biochemical; details: FIG. 7B, no additive control not accurate past base 20
Description: To investigate the accuracy of enhancement of XNTP polymerization, primer extension products were sequenced using the SBX protocol. Briefly, the constrained Xpandomer products of XNTP polymerization are cleaved to generate linearized Xpandomers. This is accomplished by first quenching the extension reaction with a solution containing 100 mM EDTA, 2 mM THPTA, and 2% Tween-20. Then the sample is subjected to amine modification with a solution of 1 M NaHCO3 and 1 M succinic anhydride in DMF. Cleavage of the phosphoramidate bonds is carried out with 37% HCl and linearized Xpandomers are purified with QIAquick columns (QIAGEN, Inc.).
For sequencing, protein nanopores are prepared by inserting α-hemolysin into a DPhPE/hexadecane bilayer member in buffer B1, containing 2 M NH4Cl and 100 mM HEPES, pH 7.4. The cis well is perfused with buffer B2, containing 0.4 M NH4Cl, 0.6 M GuCl, and 100 mM HEPES, pH 7.4. The Xpandomer sample is heated to 70° C. for 2 minutes, cooled completely, then a 2 μL sample is added to the cis well. A voltage pulse of 90 mV/390 mV/10 μs is then applied and data is acquired via Labview acquisition software.
Sequence data was analyzed by histogram display of the population of sequence reads from a single SBX reaction. […]

[3] = additive screen, primer extension with XNTPs, 1 hr at 23° C., additives typically tested in the micro to millimolar range

Cl.Nc1ccc2cc3ccc(N)cc3nc2c1 [3,6-Diaminoacridine Hydrochloride, reference compound]
effect on primer extension with XNTPs (summary of additive screen) ([1]; additive screen): significantly and reproducibly enhanced
Extension Effect [1, 3]: Beneficial

CCCCCCCCCCCCC/C=C/[C@@H](O)[C@@H](N)CO [Sphingosine]
Extension Effect [1, 3]: No effect

Cn1cc(NC(=O)c2cc(NC(=O)CN=C(N)N)cn2C)cc1C(=O)NCCC(=N)N [Netropsin dihydrochloride, reference compound]
enhancement of XNTP polymerization in titration [1]: dose-dependent enhancement
effect on primer extension with XNTPs (summary of additive screen) ([1]; additive screen): significantly and reproducibly enhanced
Extension Effect [1, 3]: Beneficial

NCc1ccccc1 [Benzylamine]
Extension Effect [1, 3]: No effect

N=C(N)NCCC[C@H](N)C(=O)O [Arginine]
Extension Effect [1, 3]: Inhibitory

CN1CCN(c2ccc3nc(-c4ccc5nc(-c6ccc(N(C)C)cc6)[nH]c5c4)[nH]c3c2)CC1 [Hoescht Stain solution 34580, reference compound]
effect on primer extension with XNTPs (summary of additive screen) ([1]; additive screen): significantly and reproducibly enhanced
Extension Effect [1, 3]: Beneficial

CCCCCCCCCCCCCC(=O)NCCC[N+](C)(C)CCCS(=O)(=O)[O-] [ASB-14 (amidosulfobetaine)]
Extension Effect [1, 3]: No effect

C[N+](C)(C)C.[Cl-] [TMACl]
Extension Effect [1, 3]: No effect

CCOc1ccc(-c2nc3ccc(-c4nc5ccc(N6CCN(C)CC6)cc5[nH]4)cc3[nH]2)cc1 [Hoescht Stain solution 33342, reference compound]
enhancement of XNTP polymerization in titration [1]: dose-dependent enhancement
effect on primer extension with XNTPs (summary of additive screen) ([1]; additive screen): significantly and reproducibly enhanced
Extension Effect [1, 3]: Beneficial
amount of MGB demonstrating reliable enhancement of XNTP polymerization [1]: 0.8 mM

CC(C)=O [Acetone]
Extension Effect [1, 3]: Beneficial

CC(=O)O.CCN(CC)CC [Triethylamine acetate]
Extension Effect [1, 3]: Inhibitory

C[N+](C)(C)CC(=O)O [Betaine]
Extension Effect [1, 3]: Inhibitory

CCCCCCCCCCCCN(C)CC(=O)O [N-Lauryl Sarcosine]
Extension Effect [1, 3]: Inhibitory

c1c[nH]cn1 [Imidazole]
Extension Effect [1, 3]: No effect

CC(=O)NCC(=O)O.CC(=O)NCC(=O)O.N=C(N)c1ccc(N=NNc2ccc(C(=N)N)cc2)cc1 [Diminazine Aceturate, reference compound]
Extension Effect [1, 3]: No effect

CDPI3 [reference compound]
Extension Effect [1, 3]: Variable effects

Triton
Extension Effect [1, 3]: No effect

O=S(=O)([O-])CCC[n+]1ccccc1 [3-(1-pyridinio)-1-propanesulfonate]
Extension Effect [1, 3]: No effect

CC1COC(=O)O1 (stereo not drawn) [Propylene carbonate]
Extension Effect [1, 3]: Inhibitory

O=C(/C=C/C=C/c1ccc2c(c1)OCO2)N1CCCCC1 [Piperdine]
Extension Effect [1, 3]: Inhibitory

OCC(O)CO [Glycerol]
Extension Effect [1, 3]: No effect

CCCCCC(=O)[O-].[Na+] [Sodium Hexanoate]
Extension Effect [1, 3]: No effect

C[N+](C)(C)[O-] [TMAO]
Extension Effect [1, 3]: Variable effects

[Mg+2] [Magnesium]
Extension Effect [1, 3]: Inhibitory

CN1C(=O)CCC1=O [N-methyl succinimide]
Extension Effect [1, 3]: Beneficial

C[N+](=O)[O-] [Nitromethane]
Extension Effect [1, 3]: Inhibitory

N[C@@H](Cc1ccc(OP(=O)(O)O)cc1)C(=O)O [O-Phospho-L-tyrosine]
Extension Effect [1, 3]: Inhibitory

CN(C)C=O [Dimethylformamide]
Extension Effect [1, 3]: No effect

NC(COP(=O)(O)O)C(=O)O (racemic) [O-phospho-DL-serine]
Extension Effect [1, 3]: Inhibitory

C[S+](C)[O-] [DMSO]
Extension Effect [1, 3]: Length increases

CCCCCCCCCCCCOS(=O)(=O)[O-].[Na+] [Sodium docecyl sulfate]
Extension Effect [1, 3]: No effect

CCCCCCCc1ccc(C(O)CC[N+](C)(C)CCCS(=O)(=O)[O-])cc1 (stereo not drawn) [C7BzO]
Extension Effect [1, 3]: No effect

C1CCOC1 [Tetrahydrofuran]
Extension Effect [1, 3]: No effect

[Cl-].[K+] [Potassium Chloride]
Extension Effect [1, 3]: No effect

N=C(N)c1ccc(-c2cc3ccc(C(=N)N)cc3[nH]2)cc1 [DAPI, reference compound]
effect on XNTP polymerization reaction, gel of FIG. 4 (extension product length vs no-additive lane 1, around 14 XNTPs) ([1]; FIG. 4 representative gel): inhibitory effect
Extension Effect [1, 3]: No effect

NC(N)=O [Urea]
Extension Effect [1, 3]: Beneficial

Nc1cc(C(=O)O)cc(C(=O)O)c1 [5-Aminoisophthalic acid]
Extension Effect [1, 3]: Inhibitory

C[N+](C)(C)CC(=O)NN.[Cl-] [Girards Reagent T]
Extension Effect [1, 3]: No effect

O=S(=O)([O-])[O-].[Ni+2] [NiSO4]
Extension Effect [1, 3]: Inhibitory

CC#N [Acetonitrile]
Extension Effect [1, 3]: No effect

CN1CCN(c2ccc3[nH]c(-c4ccc5[nH]c(-c6ccc(O)cc6)nc5c4)nc3c2)CC1 [Hoescht Stain solution 33258, reference compound]
enhancement of XNTP polymerization in titration [1]: dose-dependent enhancement
effect on primer extension with XNTPs (summary of additive screen) ([1]; additive screen): significantly and reproducibly enhanced
Extension Effect [1, 3]: Beneficial
amount of MGB demonstrating reliable enhancement of XNTP polymerization [1]: 0.6 mM
accuracy of sequence reads of SBX sequencing [2]: increased the accuracy of the sequence reads completely to the end of the 45 mer template

CCCCCCCCCCCC[N+](C)(C)C.[Cl-] [Dodecyltrimethylammonium chloride]
Extension Effect [1, 3]: Inhibitory

Nc1cc(C(=O)O)ccc1C(=O)O [2-Aminoterephthalic acid]
Extension Effect [1]: Inhibitory

[Cl-].[Na+] [NaCl]
Extension Effect [1]: Beneficial

N=C(N)c1ccc(OCCCCCOc2ccc(C(=N)N)cc2)cc1 [Pentamidine isethionate salt, reference compound]
Extension Effect [1, 3]: No effect
